According to PMC2956650, “The Dopamine Metabolite 3-Methoxytyramine Is a Neuromodulator” (PLoS ONE, 2010):
Read-outs that look alike come from different tables or passages of the source.

Biological target: T1, human trace amine associated receptor 1 (hTAAR1) (Homo sapiens, UniProt Q96RJ0)
T1 construct: gene TAAR1; hTAAR1 with the first nine amino acids of the β2-adrenergic receptor added at N-terminus
T1 sequence (Q96RJ0 1-339): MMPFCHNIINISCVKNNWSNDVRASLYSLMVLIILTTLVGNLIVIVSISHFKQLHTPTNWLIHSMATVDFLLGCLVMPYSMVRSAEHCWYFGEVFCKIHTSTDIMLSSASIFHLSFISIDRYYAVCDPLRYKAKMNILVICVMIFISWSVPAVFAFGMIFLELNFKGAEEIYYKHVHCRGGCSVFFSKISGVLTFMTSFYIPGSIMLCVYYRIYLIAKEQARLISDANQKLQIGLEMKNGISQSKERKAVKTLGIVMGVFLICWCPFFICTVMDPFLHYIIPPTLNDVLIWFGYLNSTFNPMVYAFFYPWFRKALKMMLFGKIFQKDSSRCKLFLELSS
Assay: [3H]-cAMP accumulation (column assay) in HEK-293 cells transfected with hTAAR1; no effect in mock cells
Assay type: cell-based

Row | Structure (SMILES) | EC50 | EC50 (read-out: EC50)
1 | COc1cc(CCN)ccc1O [3-MT, 3-methoxytyramine] | 700 ± 180 nM | 
2 | NCCc1ccc(O)cc1 [tyramine] |  | 320 ± 100 nM
